pIC50: −log10 of the molar value. Like-named read-outs stand apart in the source and are kept apart here.
What was measured:
[1] = biological target: T1, EGFR[T790M/C797S/d746-750] (Homo sapiens, UniProt P00533, C797S/DEL746-750/T790M); experiment: Inhibition of EGFR[T790M/C797S/d746-750] biochemical enzymatic activity (HTRF); conditions: for IC50: EGFR T790M-C797S-Del19, 1 mM ATP, 1 h, room temperature, read-out: IC50 (nM) @T790M - C797S - Del19; for pIC50: EGFR[T790M/C797S/d746-750], 1 mM ATP, 1 h at room temperature, read-out: IC50 @T790M - C797S - Del19
T1 construct: purchased Carna Bio
T1 sequence (P00533 with tags, fused parts or gaps DEL746-750/T790M/C797S limits assumed): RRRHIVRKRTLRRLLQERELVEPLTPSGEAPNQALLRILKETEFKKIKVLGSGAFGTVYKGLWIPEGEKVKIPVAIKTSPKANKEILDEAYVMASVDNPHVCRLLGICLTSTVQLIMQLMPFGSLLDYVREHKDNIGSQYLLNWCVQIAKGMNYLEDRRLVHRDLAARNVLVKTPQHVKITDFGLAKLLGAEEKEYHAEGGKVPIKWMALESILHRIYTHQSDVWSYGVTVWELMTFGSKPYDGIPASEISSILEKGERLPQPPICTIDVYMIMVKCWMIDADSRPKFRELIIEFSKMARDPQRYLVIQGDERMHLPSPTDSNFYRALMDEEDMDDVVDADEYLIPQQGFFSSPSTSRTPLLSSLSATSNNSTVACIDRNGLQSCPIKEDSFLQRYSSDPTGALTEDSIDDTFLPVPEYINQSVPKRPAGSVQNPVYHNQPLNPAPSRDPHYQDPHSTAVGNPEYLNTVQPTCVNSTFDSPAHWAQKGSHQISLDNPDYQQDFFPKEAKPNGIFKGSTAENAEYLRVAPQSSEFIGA
Outline: (§1)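 Read-out is the HTRF 665/615 nm ratio (excitation 320 nm), taken as proportional to kinase activity after a 1 h room-temperature reaction with 1 mM ATP and 1 μM biotinylated TK substrate. IC50 values derive from four-parameter logistic fitting.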

[2] = biological target: T2, EGFR Exon19Del (Homo sapiens, UniProt P00533, DEL746-750); experiment: Inhibition of EGFR Exon19Del biochemical enzymatic activity (HTRF); conditions: read-out: IC50 @Del19
T2 construct: purchased Carna Bio
T2 sequence (P00533 with tags, fused parts or gaps DEL746-750 limits assumed): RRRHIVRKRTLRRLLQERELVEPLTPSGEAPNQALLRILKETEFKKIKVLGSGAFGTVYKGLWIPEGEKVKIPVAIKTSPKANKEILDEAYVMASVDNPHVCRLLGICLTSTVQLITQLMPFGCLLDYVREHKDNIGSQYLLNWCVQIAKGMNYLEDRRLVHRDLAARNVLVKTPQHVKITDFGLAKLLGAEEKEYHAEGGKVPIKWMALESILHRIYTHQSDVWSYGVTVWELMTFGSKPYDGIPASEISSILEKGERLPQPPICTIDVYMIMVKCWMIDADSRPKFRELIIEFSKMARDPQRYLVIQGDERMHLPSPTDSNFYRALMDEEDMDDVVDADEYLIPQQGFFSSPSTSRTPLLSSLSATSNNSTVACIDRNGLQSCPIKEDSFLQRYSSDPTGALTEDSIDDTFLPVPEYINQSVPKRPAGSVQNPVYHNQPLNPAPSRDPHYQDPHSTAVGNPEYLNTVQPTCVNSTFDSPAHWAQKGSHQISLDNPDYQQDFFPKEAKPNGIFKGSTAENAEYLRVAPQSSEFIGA
Outline: as §1

[3] = biological target: T3, EGFR[T790M/C797S/L858R] (Homo sapiens, UniProt P00533, C797S/L858R/T790M); experiment: Inhibition of EGFR[T790M/C797S/L858R] biochemical enzymatic activity (HTRF); conditions: 1 mM ATP; for IC50: EGFR T790M-C797S-L858R, 1 h, room temperature, read-out: IC50 (nM) @T790M- C797S - L858R; for pIC50: EGFR[T790M/C797S/L858R], 1 h at room temperature, read-out: IC50 @T790M- C797S - L858R
T3 construct: purchased Carna Bio
Outline: as §1

[4] = biological target: T4, EGFR wild type (Homo sapiens, UniProt P00533); experiment: Inhibition of EGFR wild type biochemical enzymatic activity (HTRF); conditions: 1 mM ATP; for IC50: EGFR WT, 1 h, room temperature, read-out: IC50 (nM) @WT; for pIC50: EGFR wild type, 1 h at room temperature, read-out: IC50 @WT
T4 construct: purchased Carna Bio
Outline: as §1

[5] = biological target: T5, EGFR Exon19Del/T790M (Homo sapiens, UniProt P00533, DEL746-750/T790M); experiment: Inhibition of EGFR Exon19Del/T790M biochemical enzymatic activity (HTRF); conditions: 1 mM ATP; for IC50: EGFR Del19-T790M, 1 h, room temperature, read-out: IC50 (nM) @Del19-T790M; for pIC50: EGFR Exon19Del/T790M, 1 h at room temperature, read-out: IC50 @Del19-T790M
T5 construct: purchased Carna Bio
Outline: as §1

[6] = system: Ba/F3 cells expressing EGFR mutations; experiment: Cell proliferation assay, Ba/F3 cells expressing EGFR mutations (CellTiter-Glo, 72 hours); type: cell-based
Outline: (§2)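 Cells are exposed to graded compound concentrations after overnight plating, using 500 PC-9 or 5000 Ba/F3 per well. Baseline-subtracted viability is compared with vehicle to give percent proliferation, then GI50.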

[7] = biological target: T6, EGFR (d746-750 C797S) (Homo sapiens, UniProt P00533, C797S/DEL746-750); experiment: Inhibition of EGFR (d746-750 C797S) biochemical enzymatic activity (HTRF); conditions: 1 mM ATP; for IC50: EGFR Del19-C797S, 1 h, room temperature, read-out: IC50 (nM) @Del19-C797S; for pIC50: EGFR (d746-750 C797S), 1 h at room temperature, read-out: IC50 @Del19-C797S
T6 construct: purchased signalchem
Outline: as §1

[8] = biological target: T7, EGFR L858R/T790M (Homo sapiens, UniProt P00533, L858R/T790M); experiment: Inhibition of EGFR L858R/T790M biochemical enzymatic activity (HTRF); conditions: 1 mM ATP; for IC50: EGFR L858R-T790M, 1 h, room temperature, read-out: IC50 (nM) @L858R-T790M; for pIC50: EGFR L858R/T790M, 1 h at room temperature, read-out: IC50 @L858R-T790M
T7 construct: purchased Carna Bio
T7 sequence (P00533 25-1210 T790M/L858R): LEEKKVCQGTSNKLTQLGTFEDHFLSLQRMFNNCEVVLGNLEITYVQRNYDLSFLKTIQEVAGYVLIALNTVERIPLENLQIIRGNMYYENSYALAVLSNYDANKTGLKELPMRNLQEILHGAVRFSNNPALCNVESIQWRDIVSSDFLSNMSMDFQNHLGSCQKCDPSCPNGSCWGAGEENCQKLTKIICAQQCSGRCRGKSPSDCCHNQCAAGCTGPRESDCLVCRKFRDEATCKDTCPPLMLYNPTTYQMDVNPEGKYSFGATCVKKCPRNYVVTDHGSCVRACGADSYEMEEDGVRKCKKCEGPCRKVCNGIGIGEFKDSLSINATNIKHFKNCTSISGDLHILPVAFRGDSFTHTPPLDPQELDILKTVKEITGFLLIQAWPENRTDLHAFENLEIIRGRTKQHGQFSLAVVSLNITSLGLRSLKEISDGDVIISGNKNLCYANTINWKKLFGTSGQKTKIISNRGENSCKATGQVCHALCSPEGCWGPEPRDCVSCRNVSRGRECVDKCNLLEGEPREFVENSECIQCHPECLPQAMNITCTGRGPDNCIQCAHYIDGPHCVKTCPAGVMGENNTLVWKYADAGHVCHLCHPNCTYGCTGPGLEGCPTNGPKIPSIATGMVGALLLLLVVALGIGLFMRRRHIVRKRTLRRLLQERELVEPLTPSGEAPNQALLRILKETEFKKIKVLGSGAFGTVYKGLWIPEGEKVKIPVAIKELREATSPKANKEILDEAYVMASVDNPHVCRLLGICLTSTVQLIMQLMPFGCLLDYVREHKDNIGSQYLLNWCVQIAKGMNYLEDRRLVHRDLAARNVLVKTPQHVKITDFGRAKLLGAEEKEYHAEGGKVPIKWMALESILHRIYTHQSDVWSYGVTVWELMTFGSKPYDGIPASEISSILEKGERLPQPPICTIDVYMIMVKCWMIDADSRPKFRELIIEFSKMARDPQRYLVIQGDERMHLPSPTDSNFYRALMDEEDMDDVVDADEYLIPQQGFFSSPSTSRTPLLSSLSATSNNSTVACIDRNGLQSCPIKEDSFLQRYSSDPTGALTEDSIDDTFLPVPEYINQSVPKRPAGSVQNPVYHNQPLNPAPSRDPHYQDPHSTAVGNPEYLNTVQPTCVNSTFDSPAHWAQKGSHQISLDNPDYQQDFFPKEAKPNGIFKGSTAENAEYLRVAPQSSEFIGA
Outline: as §1

[9] = biological target: T8, EGFR L858R (Homo sapiens, UniProt P00533, L858R); experiment: Inhibition of EGFR L858R biochemical enzymatic activity (HTRF); conditions: 1 mM ATP; for IC50: 1 h, room temperature, read-out: IC50 (nM) @L858R; for pIC50: 1 h at room temperature, read-out: IC50 @L858R
T8 construct: purchased Carna Bio
T8 sequence (P00533 25-1210 L858R): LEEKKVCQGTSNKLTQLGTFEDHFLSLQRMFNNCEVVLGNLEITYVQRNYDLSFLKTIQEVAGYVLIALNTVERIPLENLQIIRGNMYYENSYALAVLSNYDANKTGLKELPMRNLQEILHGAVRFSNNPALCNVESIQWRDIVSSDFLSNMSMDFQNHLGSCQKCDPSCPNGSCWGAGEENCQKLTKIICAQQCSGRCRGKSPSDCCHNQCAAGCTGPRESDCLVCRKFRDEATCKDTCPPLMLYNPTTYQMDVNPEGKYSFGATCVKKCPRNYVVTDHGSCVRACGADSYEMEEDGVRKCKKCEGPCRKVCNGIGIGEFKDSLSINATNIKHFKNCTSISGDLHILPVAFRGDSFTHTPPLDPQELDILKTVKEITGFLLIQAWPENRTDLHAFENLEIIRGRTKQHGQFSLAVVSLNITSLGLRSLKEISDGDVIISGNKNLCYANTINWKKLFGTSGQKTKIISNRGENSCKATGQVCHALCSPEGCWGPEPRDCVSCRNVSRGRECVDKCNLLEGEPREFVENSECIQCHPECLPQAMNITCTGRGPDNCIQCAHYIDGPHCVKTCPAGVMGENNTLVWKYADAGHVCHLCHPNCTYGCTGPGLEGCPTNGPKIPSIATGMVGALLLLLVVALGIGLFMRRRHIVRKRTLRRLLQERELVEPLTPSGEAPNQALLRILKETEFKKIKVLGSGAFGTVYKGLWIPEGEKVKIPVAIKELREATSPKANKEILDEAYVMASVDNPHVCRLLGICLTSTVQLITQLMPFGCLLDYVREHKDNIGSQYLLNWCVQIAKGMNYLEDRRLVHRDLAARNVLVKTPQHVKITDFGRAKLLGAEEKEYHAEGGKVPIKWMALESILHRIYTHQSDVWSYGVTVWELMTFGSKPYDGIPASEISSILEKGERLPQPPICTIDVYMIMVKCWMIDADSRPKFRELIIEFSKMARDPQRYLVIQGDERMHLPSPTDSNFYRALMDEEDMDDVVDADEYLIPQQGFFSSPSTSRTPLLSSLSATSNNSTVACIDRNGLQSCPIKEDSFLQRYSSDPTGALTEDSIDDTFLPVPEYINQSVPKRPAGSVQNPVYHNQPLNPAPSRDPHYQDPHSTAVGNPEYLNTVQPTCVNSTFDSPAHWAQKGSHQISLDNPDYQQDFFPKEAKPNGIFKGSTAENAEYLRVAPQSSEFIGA
Outline: as §1

[10] = system: PC-9; experiment: Cell proliferation assay, PC-9 cells (CellTiter-Glo, 72 hours); type: cell-based; conditions: PC9 cells
Outline: as §2

[11] = biological target: T9, EGFR (C797S L858R) (Homo sapiens, UniProt P00533, C797S/L858R); experiment: Inhibition of EGFR (C797S L858R) biochemical enzymatic activity (HTRF); conditions: 1 mM ATP; for IC50: EGFR L858-C797S, 1 h, room temperature, read-out: IC50 (nM) @L858-C797S; for pIC50: EGFR (C797S L858R), 1 h at room temperature, read-out: IC50 @L858-C797S
T9 construct: purchased signalchem
T9 sequence (P00533 25-1210 C797S/L858R): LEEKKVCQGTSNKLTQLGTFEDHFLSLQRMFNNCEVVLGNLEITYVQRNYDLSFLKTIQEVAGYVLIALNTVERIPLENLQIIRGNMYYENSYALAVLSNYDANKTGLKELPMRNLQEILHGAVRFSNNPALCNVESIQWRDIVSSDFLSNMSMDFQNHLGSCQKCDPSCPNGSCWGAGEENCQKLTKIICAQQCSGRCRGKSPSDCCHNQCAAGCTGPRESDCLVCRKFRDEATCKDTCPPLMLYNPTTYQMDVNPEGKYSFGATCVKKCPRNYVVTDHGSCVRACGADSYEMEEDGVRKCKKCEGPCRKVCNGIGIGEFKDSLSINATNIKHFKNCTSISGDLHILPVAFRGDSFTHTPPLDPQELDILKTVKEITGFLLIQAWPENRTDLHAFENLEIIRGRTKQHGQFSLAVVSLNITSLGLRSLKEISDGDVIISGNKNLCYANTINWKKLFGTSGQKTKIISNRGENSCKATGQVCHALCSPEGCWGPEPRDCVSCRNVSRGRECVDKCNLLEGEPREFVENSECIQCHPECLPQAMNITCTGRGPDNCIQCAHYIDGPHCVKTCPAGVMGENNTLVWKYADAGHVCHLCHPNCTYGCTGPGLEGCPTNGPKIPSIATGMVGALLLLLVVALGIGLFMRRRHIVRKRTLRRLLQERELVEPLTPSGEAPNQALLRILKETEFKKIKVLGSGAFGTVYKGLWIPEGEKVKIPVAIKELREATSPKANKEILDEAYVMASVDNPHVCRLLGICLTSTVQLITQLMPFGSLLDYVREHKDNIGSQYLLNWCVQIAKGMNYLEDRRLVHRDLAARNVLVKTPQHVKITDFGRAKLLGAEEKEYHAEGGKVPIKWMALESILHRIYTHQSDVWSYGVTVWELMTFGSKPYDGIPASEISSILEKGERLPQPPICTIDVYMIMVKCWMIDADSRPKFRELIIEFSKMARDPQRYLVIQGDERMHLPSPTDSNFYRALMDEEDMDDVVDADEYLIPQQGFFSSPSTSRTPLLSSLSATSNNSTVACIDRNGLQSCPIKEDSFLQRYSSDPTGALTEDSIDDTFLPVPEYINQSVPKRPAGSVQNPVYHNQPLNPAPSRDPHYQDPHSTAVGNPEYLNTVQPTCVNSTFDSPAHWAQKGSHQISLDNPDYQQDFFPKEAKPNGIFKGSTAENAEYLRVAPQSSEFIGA
Outline: as §1

[12] = EGFR Del19, 1 mM ATP, 1 h, room temperature
[13] = EGFR Exon19Del, 1 mM ATP, 1 h at room temperature
[14] = BaF3 cells, EGFR DEL19 - C797S, read-out: GI50 DEL19 - C797S/BaF3
[15] = BaF3 cells, EGFR DEL19 - T790-C797S, read-out: GI50 DEL19 - T790-C797S/BaF3
[16] = BaF3 cells, EGFR L858R - C797S, read-out: GI50 L858R - C797S/BaF3
[17] = BaF3 cells, EGFR L858R - T790-C797S, read-out: GI50 L858R - T790-C797S/BaF3
[18] = BaF3 cells, EGFR L858R - T790M, read-out: GI50 L858R - T790M/BaF3
[19] = BaF3 cells, EGFR L858R, read-out: GI50 L858R/BaF3
[20] = EGFR DEL19 - T790M, read-out: GI50 DEL19 - T790M

SMILES | pIC50 [1] | pIC50 [2, 13] | pIC50 [3] | pIC50 [4] | pIC50 [5] | GI50 [6, 14] | GI50 [6, 15] | GI50 [6, 16] | GI50 [6, 17] | GI50 [6, 18] | GI50 [6, 19] | GI50 [6, 20] | pIC50 [7] | pIC50 [8] | pIC50 [9] | GI50 ([10]; read-out: GI50 PC9) | pIC50 [11] | further results
CN(C)CCC1CN(c2ccc3nc4n(c3c2)C23CCC(CN(CCOc5c(cnn5C)-c5cc(cn(C)c5=O)C(=O)N4)C2)C3)C1 (single isomer, unassigned) [Example A95B] |  |  |  |  |  |  |  |  |  |  |  |  |  |  |  |  |  | IC50 [1]: 2.7 nM; pIC50 [2, 12]: 8.77; IC50 [3]: 3.3 nM; IC50 [4]: 55 nM; IC50 [5]: 3.1 nM; GI50 ([6]; Mus musculus, BaF3, 72 h, BaF3 cells, EGFR DEL19-C797S, CellTiter-Glo, read-out: DEL19-C797S/BaF3 GI50): 95 nM; GI50 ([6]; Mus musculus, BaF3, 72 h, BaF3 cells, EGFR DEL19-T790-C797S, CellTiter-Glo, read-out: DEL19-T790-C797S/BaF3 GI50): 228 nM; GI50 ([6]; Mus musculus, BaF3, 72 h, BaF3 cells, EGFR L858R, CellTiter-Glo, read-out: L858R/BaF3 GI50): 357 nM; GI50 ([6]; Mus musculus, BaF3, 72 h, BaF3 cells, EGFR L858R-C797S, CellTiter-Glo, read-out: L858R-C797S/BaF3 GI50): 436 nM; GI50 ([6]; Mus musculus, BaF3, 72 h, BaF3 cells, EGFR L858R-T790-C797S, CellTiter-Glo, read-out: L858R-T790-C797S/BaF3 GI50): 574 nM; GI50 ([6]; Mus musculus, BaF3, 72 h, BaF3 cells, EGFR L858R-T790M, CellTiter-Glo, read-out: L858R-T790M/BaF3 GI50): 1080 nM; GI50 ([6]; Mus musculus, BaF3, 72 h, EGFR DEL19-T790M, CellTiter-Glo, read-out: DEL19-T790M GI50): 177 nM; IC50 [7]: 1.5 nM; IC50 [8]: 3.7 nM; IC50 [9]: 7 nM; GI50 ([10]; Homo sapiens, PC-9, 72 h, CellTiter-Glo, read-out: PC9 GI50): 2460 nM; IC50 [11]: 4.7 nM
Cc1cc2cc(n1)-c1cnn(C)c1OCCN1CC3CCC(C3)(C1)n1c(nc3ccc(N4CCC(N5CCN(C)CC5)CC4)cc31)NC2=O (single isomer, unassigned) [Example B59A] | 6.29 | < 5.30 | < 5.30 | < 5.30 | 5.94 | 227 nM | 474 nM | 751 nM | 144 nM | 299 nM | 1130 nM | 788 nM | < 5.30 | < 5.30 | < 5.30 | 930 nM | < 5.30 | 
Cc1cc2cc(n1)-c1cnn(C)c1OCCN1CC3CCC(C3)(C1)n1c(nc3ccc(N4CCC(N5CCN(C)CC5)C4)cc31)NC2=O (single isomer, unassigned) [Example B49B] | 8.46 | 8.10 | 8.62 | 7.12 | 8.24 | 2 nM | 2 nM | 3 nM | 2 nM | 2 nM | 2 nM | 2 nM | 8.42 | 8.25 | 7.77 | 6 nM | 8.10 | 
Cc1cc2cc(n1)-c1cnn(C)c1OCCN1CC3CCC(C3)(C1)n1c(nc3ccc(N4CC[C@@H](N(C)C)C4)cc31)NC2=O (single isomer, unassigned) [Example B42A] | 5.97 | < 5.30 | < 5.30 | < 5.30 | 5.61 | 865 nM | 476 nM | 602 nM | 75 nM | 354 nM | 1770 nM | 468 nM | < 5.30 | < 5.30 | < 5.30 | 1590 nM | < 5.30 | 
CN1CCC2(CC1)CN(c1ccc3nc4n(c3c1)C13CCC(CN(CCOc5c(cnn5C)-c5cc(cn(C)c5=O)C(=O)N4)C1)C3)C2 (single isomer, unassigned) [Example A77A] |  |  |  |  |  |  |  |  |  |  |  |  |  |  |  |  |  | IC50 [1]: > 5000 nM; pIC50 [2, 12]: 6.34; IC50 [3]: > 5000 nM; IC50 [4]: > 5000 nM; IC50 [5]: > 5000 nM; GI50 ([6]; BaF3 cells, EGFR DEL19-C797S, CellTiter-Glo, read-out: DEL19-C797S/BaF3 GI50): 102 nM; GI50 ([6]; BaF3 cells, EGFR DEL19-T790-C797S, CellTiter-Glo, read-out: DEL19-T790-C797S/BaF3 GI50): 326 nM; GI50 ([6]; BaF3 cells, EGFR L858R, CellTiter-Glo, read-out: L858R/BaF3 GI50): 320 nM; GI50 ([6]; BaF3 cells, EGFR L858R-C797S, CellTiter-Glo, read-out: L858R-C797S/BaF3 GI50): 125 nM; GI50 ([6]; BaF3 cells, EGFR L858R-T790-C797S, CellTiter-Glo, read-out: L858R-T790-C797S/BaF3 GI50): 368 nM; GI50 ([6]; BaF3 cells, EGFR L858R-T790M, CellTiter-Glo, read-out: L858R-T790M/BaF3 GI50): 375 nM; GI50 ([6]; EGFR DEL19-T790M, CellTiter-Glo, read-out: DEL19-T790M GI50): 212 nM; IC50 [7]: 464 nM; IC50 [8]: > 5000 nM; IC50 [9]: 1110 nM; GI50 ([10]; CellTiter-Glo, read-out: PC9 GI50): 341 nM; IC50 [11]: > 5000 nM
Cc1cc2cc(n1)-c1cnn(C)c1OCCN1CCOCC(C1)n1c(nc3ccccc31)NC2=O (centres unmarked) [Example B7B, 15,21-dimethyl-23,29-dioxa-2,9,11,16,20,21,26-heptaazahexacyclo[24.4.1.1^{13,17}.0^{2,10}.0^{3,8}.0^{18,22}]dotriaconta-3,5,7,9,13(32),14,16,18(22),19-nonaen-12-one] | 7.77 | 6.06 | 6.28 | < 5.30 | 7.38 | 173 nM | 130 nM | 253 nM | 123 nM | 292 nM | 1600 nM | 189 nM | 6.49 | 6.04 | < 5.30 | 469 nM | 5.35 | 
Cc1cc2cc(n1)-c1cnn(C)c1OCCN1CC3CCC(C3)(C1)n1c(nc3ccc(N4CC5CC4CN5C)cc31)NC2=O (single isomer, unassigned) [Example B53A] | 5.97 | < 5.30 | < 5.30 | < 5.30 | 5.48 | 348 nM | 419 nM | 1070 nM | 91 nM | 383 nM | 2570 nM | 388 nM | 5.36 | < 5.30 | < 5.30 | 3040 nM | < 5.30 | 
